Assay results reported in patent US12527775B2 (priority 2020, dated 2026).
Read-outs that look alike come from different tables or passages of the source.

Assays:
[1] = target: human recombinant 5-HT2A receptor (Homo sapiens (Human), UniProt P28223); test: biochemical; type: binding
Description: Test Example 1: 5-HT2A Receptor Binding Inhibition Test
(Each Experimental Condition)
Cell membrane: 15 μg of Jump-In HEK cell membrane (expressing human recombinant 5-HT2A receptor) per well
Assay buffer: Tris-HCl 50 mmol/L (pH 7.4) containing NaCl 120 mmol/L, MgCl2·6H2O 1 mmol/L, KCl 5 mmol/L, 0.1% BSA and CaCl2 2 mmol/L
Radioactive ligand: [^3H]-Ketanserin with a final concentration of 3 nmol/L
(§1) Non-specific ligand: Serotonin HCl with a final concentration of 500 μmol/L
(§2) The Kd value was calculated when the lot of cell membrane was changed. […] The radioactive ligand solution was serially diluted from 16 nM at a 2-fold ratio and the count was confirmed with a liquid scintillator. […] After that, filtration was performed with Cell harvester (PerkinElmer). The radioactive ligand solution was dispensed into an empty well of the GF/B UniFilter plate at 10 μL/well. […] The GF/B UniFilter plate was allowed to stand overnight at room temperature. […] The Saturation curve was drawn from the measured value, and the Kd value was calculated from the slope of the Scatchard Plot.
(§3) (Binding Test of the Compound According to the Present Invention)
(§4) After that, filtration was performed with Cell harvester (PerkinElmer).

[2] = target: human recombinant 5-HT2C receptor (Homo sapiens (Human), UniProt P28335); test: biochemical; type: binding
human recombinant 5-HT2C receptor, sequence (P28335 whole entry, looked up): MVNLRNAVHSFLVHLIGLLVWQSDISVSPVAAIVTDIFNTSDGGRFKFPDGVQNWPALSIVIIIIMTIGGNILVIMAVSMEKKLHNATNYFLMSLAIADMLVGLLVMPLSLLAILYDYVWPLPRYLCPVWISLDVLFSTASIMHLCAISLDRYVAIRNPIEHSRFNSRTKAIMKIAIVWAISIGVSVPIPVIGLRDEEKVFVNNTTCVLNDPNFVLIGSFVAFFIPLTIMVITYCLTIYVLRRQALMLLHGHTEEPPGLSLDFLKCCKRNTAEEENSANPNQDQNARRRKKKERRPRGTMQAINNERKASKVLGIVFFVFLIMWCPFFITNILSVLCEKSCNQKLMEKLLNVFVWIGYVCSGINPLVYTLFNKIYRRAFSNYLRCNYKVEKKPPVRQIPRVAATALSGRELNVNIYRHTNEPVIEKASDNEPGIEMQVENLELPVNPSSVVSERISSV
Description: Test Example 2: 5-HT2C Receptor Binding Inhibition Test
(Each experimental condition)
Cell membrane: 0.5 μg of Jump-In HEK cell membrane (expressing human recombinant 5-HT2C receptor) per well
Assay buffer: Tris-HCl 50 mmol/L (pH 7.4) containing NaCl 120 mmol/L, MgCl2·6H2O 1 mmol/L, KCl 5 mmol/L, 0.1% BSA and CaCl2) 2 mmol/L
Radioactive ligand: [^3H]-Mesulergine with a final concentration of 1 nmol/L
as §1, §2, §3, §4

[3] = [3H]-Ketanserin 3 nmol/L, Jump-In HEK cell membrane, class symbols, read-out: h-5-HT2A Ki
[4] = human serotonin 5-HT2C receptor binding, [3H]-Mesulergine, read-out: h-5-HT2C Ki
[5] = [3H]-Ketanserin 3 nmol/L, Jump-In HEK cell membrane, read-out: human serotonin 5-HT2A receptor binding activity, Ki
[6] = [3H]-Mesulergine 1 nmol/L, Jump-In HEK cell membrane, read-out: human serotonin 5-HT2C receptor binding activity, Ki

Compound | Ki [1, 3] [µM] | Ki [2, 4] [µM] | Ki [1, 5] [µM] | Ki [2, 6] [µM] | further results
CC(C)COc1ccc(CNC(=O)N(Cc2ccn(C)c2)[C@@H]2CCN(C)C[C@@H]2F)cc1 (racemic) [Compound I-108] | < 0.01 | < 0.01 |  |  | 
CC(C)COc1ccc(CNC(=O)N(Cc2ccc(F)cn2)[C@H]2CCNC[C@H]2F)cc1 [Compound I-115] | < 0.01 | < 0.01 |  |  | 
CC(C)COc1ccc(CNC(=O)N(Cc2ccc(F)cn2)C2CCN(C)C(CO)C2)cc1 (centres unmarked) [Compound I-089] | < 0.01 | 0.01 to 0.1 |  |  | 
CC(C)COc1ccc(CNC(=O)N(Cc2ncc(O)cc2F)C2CCN(C)CC2)cc1 [Compound I-077] | 0.01 to 0.1 | > 0.1 |  |  | 
CC(C)COc1ccc(CNC(=O)N(Cc2ccn(C)c2)[C@@H]2CCNC[C@@H]2F)cc1 (racemic) [Compound I-093] | < 0.01 | < 0.01 |  |  | 
CC(C)COc1ccc(CNC(=O)N(Cc2ccn(C(F)F)n2)C2CCN(C)CC2)cc1 [Compound I-118] | < 0.01 | 0.01 to 0.1 |  |  | 
CC(C)COc1ccc(CNC(=O)N(Cc2cn(C)c3cccnc23)C2CCN(C)CC2)cc1 [Compound I-074] | 0.01 to 0.1 | 0.01 to 0.1 |  |  | 
CC(C)COc1ccc(CNC(=O)N(Cc2ccn(C)n2)C2CCN(C)CC2)cc1 [Compound I-021] |  |  | 0.000858 | 0.0507 | 
CC(C)CN(C)c1ccc(CNC(=O)N(Cc2ccc(F)cn2)[C@H]2CCN(C)C[C@H]2F)cc1 [Compound I-147] |  |  | 0.000758 | 0.00212 | 
Cc1cnc(CN(C(=O)NCc2ccc(OCC(C)C)cc2)C2CCN(C)CC2)cn1 [Compound I-078] | 0.01 to 0.1 | > 0.1 |  |  | 
C[C@@H](F)COc1ccc(CNC(=O)N(Cc2ccc(F)cn2)C2CCN(C)CC2)cc1 [Compound I-098] | < 0.01 | 0.01 to 0.1 |  |  | 
CC(C)COc1ccc(CNC(=O)N(Cc2ccc(F)cn2)C2CCN(C)C3(CC3)C2)cc1 (racemic) [Compound I-136] |  |  | 0.00802 | 0.148 | 
CC(C)COc1ccc(CNC(=O)N(Cc2ncccc2F)[C@@H]2CCN(C)C[C@@H]2F)cc1 (racemic) [Compound I-069] | 0.01 to 0.1 | > 0.1 |  |  | 
CC(C)COc1ccc(CNC(=O)N(Cc2ccn(C)c2)[C@H]2CCNC[C@H]2F)cc1 [Compound I-124] |  |  | 0.00069 | 0.00222 | 
CC(C)COc1ccc(CNC(=O)N(Cc2ccc(Cl)cn2)C2CCN(C)CC2)cc1 [Compound I-009] |  |  | 0.000291 | 0.00792 | 
CC(C)COc1ccc(CNC(=O)N(Cc2ccc(F)c3cccnc23)C2CCN(C)CC2)cc1 [Compound I-070] | < 0.01 | 0.01 to 0.1 |  |  | 
CN1CCC(N(Cc2ccc(F)cn2)C(=O)NCc2ccc(OCC(F)(F)F)cc2)CC1 [Compound I-095] | < 0.01 | < 0.01 |  |  | 
Cc1ccc(CNC(=O)N(Cc2cc(C)n(C)n2)C2CCN(C)CC23CC3)cc1 (racemic) [Compound I-105] | < 0.01 | < 0.01 |  |  | 
C[C@H](F)COc1ccc(CNC(=O)N(Cc2ccc(F)cn2)C2CCN(C)CC2)cc1 [Compound I-097] | < 0.01 | 0.01 to 0.1 |  |  | 
Cc1ccc(CNC(=O)N(Cc2ccc(F)cn2)C2CCNCC23CC3)cc1 (racemic) [Compound I-101] | < 0.01 | 0.01 to 0.1 |  |  | 
CC(C)COc1ccc(CNC(=O)N(Cc2ccc(F)cn2)[C@H]2CCN(C)C[C@H]2F)cc1 [Compound I-103] | < 0.01 | < 0.01 |  |  | 
CC(C)COc1ccc(CNC(=O)N(Cc2cc3c(cn2)OCCO3)C2CCN(C)CC2)cc1 [Compound I-072] |  |  | 0.219 | 0.617 | 
COc1ccc(COC(=O)N(Cc2ccn(C)c2)C2CCN(C)CC2)cc1 [Compound I-106] | < 0.01 | < 0.01 |  |  | 
Cc1ccc(CNC(=O)N(Cc2ccc(F)cn2)[C@H]2CCN(C)CC23CC3)cc1 [Compound I-120] | < 0.01 | < 0.01 |  |  | 
COc1ccc(CNC(=O)N(Cc2ccc(F)cn2)C2CCN(C)CC23CC3)cc1 (racemic) [Compound I-099] |  |  |  |  | Ki [1]: < 0.01 µM; Ki [2]: < 0.01 µM
COc1ccc(CNC(=O)N(Cc2cc(C)n(C)n2)C2CCN(C)CC23CC3)cc1 (racemic) [Compound I-104] | < 0.01 | < 0.01 |  |  | 
CC(C)COc1ccc(CNC(=O)N(Cc2ccc(F)cn2)[C@@H]2CCN(C)C[C@@H]2F)cc1 [Compound I-085] |  |  | 0.0238 | 0.0962 | 
CN1CCC(N(Cc2ccc(F)cn2)C(=O)NCc2cccc(O)c2)CC1 [Compound I-075] |  |  | 0.13 | 1.31 | 

Compound | Ki [1, 3] [µM] | Ki [2, 4] [µM] | Ki [1, 5] [µM] | Ki [2, 6] [µM] | further results
CCCOc1ccc(CNC(=O)N(Cc2cc(C)n(C)n2)[C@H]2CCNC[C@H]2F)cc1 [Compound I-123] | < 0.01 | 0.01 to 0.1 |  |  | 
Cc1cc(CN(C(=O)NCc2ccc(OCC(C)C)cc2)C2CCN(C)CC2)nn1C [Compound I-096] | < 0.01 | 0.01 to 0.1 |  |  | 
Cc1ccc(CNC(=O)N(Cc2ccc(F)cn2)C2CCN(C)CC23CC3)cc1 (racemic) [Compound I-100] | < 0.01 | 0.01 to 0.1 |  |  | 
CN1CCC(N(Cc2ccc(F)cn2)C(=O)NCc2ccc(OCC(C)(F)F)cc2)CC1 [Compound I-092] | < 0.01 | < 0.01 |  |  | 
CCCOc1ccc(CNC(=O)N(Cc2cc(C)n(C)n2)[C@@H]2CCN(C)CC23CC3)cc1 [Compound I-127] | > 0.1 | > 0.1 |  |  | 
CC(C)COc1ccc(CNC(=O)N(Cc2ccc(F)cn2)C2CCNCC2(F)F)cc1 (racemic) [Compound I-091] | < 0.01 | < 0.01 |  |  | 
CCCOc1ccc(CNC(=O)N(Cc2cc(C)n(C)n2)[C@H]2CCN(C)CC23CC3)cc1 [Compound I-126] |  |  | 0.00192 | 0.00109 | 
CC(C)COc1ccc(COC(=O)N(Cc2ccc(F)cn2)C2CCN(C)CC2)cc1 [Compound I-042] |  |  | 0.00115 | 0.00231 | 
CN1CCC(N(Cc2ccc(F)cn2)C(=O)NCc2ccc(Cl)cc2)CC1 [Compound I-084] |  |  | 0.00561 | 0.0652 | 
CC(C)COc1ccc(CNC(=O)N(Cc2ncccc2F)[C@@H]2CCNC[C@@H]2F)cc1 (racemic) [Compound I-073] | 0.01 to 0.1 | > 0.1 |  |  | 
CCCOc1ccc(CNC(=O)N(Cc2ccn(C)n2)[C@H]2CCNC[C@H]2F)cc1 [Compound I-122] | < 0.01 | 0.01 to 0.1 |  |  | 
CC(C)COc1ccc(CNC(=O)N(Cc2cc3ccccc3cn2)C2CCN(C)CC2)cc1 [Compound I-037] |  |  | 0.000654 | 0.0282 | 
CCCOc1ccc(CNC(=O)N(Cc2ccc(F)cn2)[C@H]2CCNC[C@H]2F)cc1 [Compound I-119] | < 0.01 | < 0.01 |  |  | 
CC(C)COc1ccc(CC(=O)N(Cc2ccc(F)cn2)C2CCN(C)CC2)cc1 [Compound I-068] |  |  | 0.00652 | 0.0499 | 
CN1CCC(N(Cc2ccn(C)n2)C(=O)NCc2ccc(OC(F)F)cc2)C2(CC2)C1 (racemic) [Compound I-111] | < 0.01 | < 0.01 |  |  | 
CC(C)COc1ccc(CNC(=O)N(Cc2ncc(F)cc2O)C2CCN(C)CC2)cc1 [Compound I-080] | 0.01 to 0.1 | 0.01 to 0.1 |  |  | 
CN1CCC(N(Cc2ccc(F)cn2)C(=O)NCc2ccc(OCC(F)(F)C(F)F)cc2)CC1 [Compound I-117] | < 0.01 | < 0.01 |  |  | 
COc1ccc(CNC(=O)N(Cc2ccc(F)cn2)C2CCN(C)CC2)cc1 [Compound I-043] |  |  | 0.00252 | 0.0557 | 
CC(C)COc1ccc(CNC(=O)N(Cc2cc(CF)n(C)n2)[C@H]2CCN(C)C[C@H]2F)cc1 [Compound I-146] |  |  | 0.00194 | 0.00496 | 
CCCOc1ccc(CNC(=O)N(Cc2ccn(C)n2)C2CCNCC23CC3)cc1 (racemic) [Compound I-107] | < 0.01 | 0.01 to 0.1 |  |  | 
CN1CCC(N(Cc2ccn(C)n2)C(=O)NCc2ccc(OCC3CC3)cc2)C2(CC2)C1 (racemic) [Compound I-110] | < 0.01 | < 0.01 |  |  | 
CCc1ccc(CNC(=O)N(Cc2ccc(F)cn2)C2CCN(C)CC2)cc1 [Compound I-116] |  |  | 0.00145 | 0.0122 | 
CC(C)COc1ccc(CNC(=O)N(Cc2cn(C)c3ccccc23)C2CCN(C)CC2)cc1 [Compound I-079] | > 0.1 | > 0.1 |  |  | 
CC(C)COc1ccc(CNC(=O)N(Cc2ccc(F)c3ccoc23)C2CCN(C)CC2)cc1 [Compound I-071] |  |  | 0.0133 | 0.0607 | 
CC(C)CNc1ccc(CNC(=O)N(Cc2ccc(F)cn2)C2CCN(C)CC2)cc1 [Compound I-112] | < 0.01 | < 0.01 |  |  | 
Cc1cc(CN(C(=O)NCc2ccc(OCC(C)C)cc2)C2CCN(C)CC23CC3)nn1C (racemic) [Compound I-094] | < 0.01 | < 0.01 |  |  | 
CC(C)COc1ccc(CNC(=O)N(Cc2ccn(C)n2)C2CCNCC23CC3)cc1 (racemic) [Compound I-090] | < 0.01 | < 0.01 |  |  | 
